For series [1], the species on record is Rattus norvegicus. Nature of the series: In vitro inhibitory activity of glycine (0.3 uM) responses in isolated cultured cortical neurons. The class given is functional.
Series [2] has as its target Glutamate receptor ionotropic, NMDA 1 (Rattus norvegicus, UniProt P35439). Nature of the series: Inhibition of [3H]glycine binding to rat cortical membranes. It counts as cell membranes, Membrane.
Series [3] is described as follows: Compound was evaluated for the pKa value. The class given is physicochemical.
The nature of series [4]: Compound was evaluated for the pKa value in experiment 1. It counts as physicochemical.
Series [5] can be described thus: Compound was evaluated for the pKa value in experiment 2. The class given is physicochemical.
Series [6] in a line: Compound was evaluated for the octanol-water partition coefficient […] at pH 7.4. It counts as physicochemical.
The species named for series [7] is Rattus norvegicus. Nature of the series: Tested in vitro for the inhibitory constant of glycine (0.3 uM) responses in isolated cultured cortical neurones. It counts as functional.

As usually defined, the Ki is the equilibrium dissociation constant of an inhibitor or competing ligand from its target. A low value points to tighter binding. Usually IC50 stands for the concentration that inhibits the measured activity by half. For `N[C@H]1C(=O)N(O)C[C@H]1O`, in series [1], the inhibitory constant (Ki) is 0.75 µM. Besides, in series [2], the IC50 is 1.3 µM. Broadly, the Inhibition is the percentage by which the read-out fell short of the control. `CCC[C@@H]1CNC(=O)[C@@H]1N`: the Inhibition in series [1] is recorded as 39%. The molecule also returned an IC50 in series [2] of more than 100 µM.

`CC[C@@H]1CN(O)C(=O)[C@@H]1N` registered a Ki in series [1] of 15.4 µM. In addition, the IC50 in series [2] came to 15 µM. As usually defined, the pKa is the pH at which an ionisable group is half protonated. Higher therefore signals a weaker acid or stronger base. `C[C@@H]1CN(OCc2ccccc2)C(=O)[C@@H]1N` returned a pKa in series [3] of 6.1. The molecule `C[C@H]1CN(O)C(=O)[C@@H]1N` yielded a concentration for half-maximal inhibition (IC50) in series [2] of more than 100 µM. Regarding `N[C@H]1C(=O)N(O)C[C@@H]1O`, the Inhibition in series [1] was determined as 30%. In series [2], this molecule returned a half-maximal inhibitory concentration (IC50) of 313 µM. Consider `O=C1C2CC(CN2)N1O` (stereo not given), for which the inhibition constant Ki in series [1] amounted to 5 µM. Regarding `NC1CCN(OCc2ccccc2)C1=O` (stereo not given), the pKa in series [4] was found to be 6.2; in series [5], 6.6. In series [2], `C[C@H]1CN(O)C(=O)[C@H]1N` gave a 50% inhibitory concentration (IC50) of 86 µM. In series [1], `C[C@@H]1C2NCCC1N(O)C2=O` (stereo not given in full) had a Ki of more than 80 µM. For the same molecule, the IC50 in series [2] was more than 100 µM. Taken in the same sequence, the figures for `C[C@H]1C2NCCC1N(O)C2=O` (stereo not given in full) were 8.2 µM and 48 µM. The molecule `O=C1C2CC(CCN2)N1O` (stereo not given) came in with an inhibition constant (Ki) in series [1] of 3.5 µM. Also, in series [2], the half-inhibitory concentration (IC50) was 19 µM. As for `O=C1C2NCCC2CN1O` (stereo not given), in series [1], the Inhibition amounted to 52%. Besides, in series [2], the 50% inhibitory concentration (IC50) was more than 100 µM.

Regarding `N[C@H]1C(=O)N(O)C[C@H]1CCO`, the Inhibition in series [1] was 59%. Also, the IC50 in series [2] was more than 100 µM. Taken in the same sequence, the figures for `N[C@H]1C(=O)N(O)C[C@H]1CO` were 63% and more than 100 µM. In series [1], `O=C1C2CC(CCN2)CN1O` (stereo not given) returned an Inhibition of 28%. The half-inhibitory concentration (IC50) in series [2] is more than 100 µM. Regarding `O=C1C2CC(CN2)CN1O` (stereo not given), the Inhibition in series [1] came out at 16%. This molecule also gave a half-maximal inhibitory concentration (IC50) in series [2] of more than 100 µM. Take `N[C@H]1C(=O)N(O)C[C@H]1c1ccccc1`: the Inhibition in series [1] is 0%. This molecule also registered an IC50 in series [2] of more than 100 µM. Molecule `NC1CCN(O)C1=O` (single isomer, unassigned; (-)) returned an IC50 in series [2] of 339 µM.

Usually logD stands for lipophilicity at a set pH, counting ionised and neutral species. A lower logD goes with lower lipophilicity. In series [1], `N[C@@H]1CCN(O)C1=O` (stereo in doubt; 1) displayed a Ki of 6.3 µM. This molecule also gave a logD in series [6] of 3.52. In series [3], this molecule showed a pKa of 8.1. Besides, the IC50 in series [2] is 27.2 µM.

As for `C[C@@H]1CN(O)C(=O)[C@@H]1N` (stereo in doubt; 2), in series [1], affinity was put at a Ki of 1.3 µM. The molecule further yielded a log distribution coefficient (logD) in series [6] of 3.42. The pKa in series [3] came to 8. In series [2], this molecule came in with a concentration for half-maximal inhibition (IC50) of 2.9 µM. As for `N[C@@H]1CCN(O)C1=O` (stereo in doubt; (+)-1), the Ki in series [1] was 2.5 µM. For the same molecule, the IC50 in series [2] is 12.5 µM. As for `C[C@@H]1CN(O)C(=O)[C@@H]1N` (stereo in doubt; (+)-2), the Ki in series [7] worked out at 0.65 µM. Besides, the IC50 in series [2] amounted to 1.4 µM.
